# Data from patent US10640495B2, “Heterocycle derivatives having TrkA inhibitory activity” (Shionogi & Co., Ltd., priority 2015, dated 2020).
# Target: human TrkA (Homo sapiens (Human), UniProt P04629)
# Assay: Human TrkA inhibition assay (Test Example 2)
# Assay type: biochemical
# Settings: Table 152, human TrkA inhibition; read-out: IC50_nM
# Method: Seven point five μL per well of human TrkA (PV3144, Lifetechnologies, final concentration: 1 nmol/L) suspended in the assay buffer (100 mmol/L 4-(2-hydroxyethyl)-1-piperazineethanesulfonic acid (HEPES), 10 mmol/L magnecium chloride, 0.003 vol % Brij-35, 0.004 vol % Tween20 and 1 mmol/L dithiothreitol (DTT)) was applied in a 384 well plate and the plate was pre-incubated for 15 min at room temperature with 0.4 μL of each compound (final concentration: 200 μmol/L-1 pmol/L) dissolved in DMSO. Then, fluorescent substrate (FL-peptide 27, 760424, PerkinElmer, final concentration: 1.5 μmol/L) and ATP (final concentration 500 μmol/L) dissolved in the assay buffer was added in each well. After the incubation of 120 min at 37° C., fifteen μL of termination buffer (100 mmol/L HEPES, 40 mmol/L ethylenediaminetetraacetic acid (EDTA), 10 mmol/L magnecium chloride, 0.003 vol % Brij-35, 0.004 vol % Tween20, 1 mmol/L DTT and 0.16 vol % Coating Reagent 3) was added in each well to stop the enzyme reaction. Fluorescent intensities (FI) of phosphorylated and non-phosphorylated fluorescent substrates were measured by LabChip EZReader II (Caliper LifeSciences, Inc.), and conversion ratio (CR) was calculated by the following formula-1. The CR in the well applied with DMSO alone was used as a negative control and the CR in the well without applying TrkA was used as a positive control. The inhibitory effect of each compound on TrkA phosphorylation was calculated by the following formula-2. CR (%)=(FI of phosphorylated substrate/(FI of phosphorylated substrate+FI of non-phosphorylated substrate))×100 (Formula-1) Phosphorylation inhibition (%)=(1−(CR with compound treatment−CR of positive control)/(CR of negative control−CR of positive control))×100 (Formula-2)
# IC50 values (nmol/L) were determined by the logistic regression using the inhibition data in 10 points of 3-fold dilution series at a compound concentration range of 20 nmol/L to 1 pmol/L, or 10 points of 3-fold dilution series at the range of 2 μmol/L to 0.1 nmol/L, or 10 points of 3-fold dilution series at the range of 200 μmol/L to 10 nmol/L, or 15 points of 3-fold dilution series at the range of 200 μmol/L to 0.04 nmol/L.
# The evaluation results of the compounds in the present invention are indicated as follows. IC50 values of 0 to 100 nM, 100 to 1000 nM and over 1000 nM were shown as “A”, “B” and “C”, respectively.
# human TrkA, sequence (P04629 440-796): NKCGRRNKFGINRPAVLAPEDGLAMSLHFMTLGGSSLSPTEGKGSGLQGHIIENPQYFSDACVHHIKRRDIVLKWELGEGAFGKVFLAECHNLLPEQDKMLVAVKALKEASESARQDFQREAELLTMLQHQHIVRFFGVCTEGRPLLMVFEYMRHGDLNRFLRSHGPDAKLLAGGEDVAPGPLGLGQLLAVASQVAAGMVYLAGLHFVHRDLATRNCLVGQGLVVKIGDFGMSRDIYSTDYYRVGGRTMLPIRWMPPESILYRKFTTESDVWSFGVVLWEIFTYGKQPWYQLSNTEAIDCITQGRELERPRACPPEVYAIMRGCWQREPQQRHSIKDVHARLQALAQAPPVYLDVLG
row,Compound,IC50 [nM]
1,COCCN1C[C@@H](NC(=O)Nc2c(C)c(-c3ccc(C(=O)OC(C)(C)C)cc3)nn2-c2ccccc2)[C@H](c2ccc(F)c(F)c2)O1 (racemic) [Compound I-33],< 100

# Same assay, conditions: Table 153, human TrkA inhibition; read-out: IC50
row,Compound,IC50 [nM]
1,COCCN1C[C@@H](NC(=O)Nc2c(C)c(-c3cnc(C)c(N=S(C)(C)=O)c3)nn2-c2ccccc2)[C@H](c2ccc(F)c(F)c2)O1 (racemic) [Compound I-176],< 100
2,COCCN1C[C@@H](NC(=O)Nc2c(C)c(-c3cnc(OC)c(C(=O)NC4CCS(=O)(=O)CC4)c3)nn2-c2ccccc2)[C@H](c2ccnc(F)c2)O1 (racemic) [Compound I-112],< 100
3,COCCN1C[C@@H](NC(=O)Nc2c(C)c(-c3cnc(C(=O)NC4CCOCC4)c(C)c3)nn2-c2ccccc2)[C@H](c2ccnc(F)c2)O1 (racemic) [Compound I-171],< 100
4,COCCN1C[C@@H](NC(=O)Nc2c(C)c(-c3cnc4c(cnn4C)c3)nn2-c2ccc(F)cc2)[C@H](c2ccc(F)c(F)c2)O1 (racemic) [Compound I-174],< 100
5,COCCN1C[C@@H](NC(=O)Nc2c(C)c(-c3ccc(C#N)cc3)nn2-c2ccccc2)[C@H](c2cnc(F)c(F)c2)O1 (racemic) [Compound I-60],< 100

# Same assay, conditions: Table 154, human TrkA inhibition; read-out: IC50
row,Compound,IC50 [nM]
1,COCCN1C[C@@H](NC(=O)Nc2c(C)c(-c3cnc(OC)c(C(=O)O)c3)nn2-c2ccccc2)[C@H](c2cnc(F)c(F)c2)O1 (racemic) [Compound I-179],< 100
2,COCCN1C[C@@H](NC(=O)Nc2c(C)c(-c3cnc(OC)nc3)nn2-c2ccccc2)[C@H](c2cc(F)nc(F)c2)O1 (racemic) [Compound I-187],< 100
3,COCCN1C[C@@H](NC(=O)Nc2c(C)c(-c3cnc(OC)c(C(=O)NC4CCOCC4)c3)nn2-c2ccc(F)cc2)[C@H](c2ccc(F)c(F)c2)O1 (racemic) [Compound I-184],< 100
4,COCC[C@@H]1C[C@@H](NC(=O)Nc2c(C)c(-c3cnc(NC4CC4)nc3)nn2-c2ccccc2)[C@H](c2ccnc(F)c2)O1 [Compound I-293],< 100
5,COCCN1C[C@@H](NC(=O)Nc2c(C)c(-c3ccnc(C(=O)OC)c3)nn2-c2ccccc2)[C@H](c2ccc(F)c(F)c2)O1 (racemic) [Compound I-189],< 100
6,COCCN1C[C@@H](NC(=O)Nc2c(C)c(-c3cnc4c(c3)nc(C(N)=O)n4C)nn2-c2ccccc2)[C@H](c2ccnc(F)c2)O1 (racemic) [Compound I-219],< 100
7,Cc1c(-c2cnc3c(cnn3C)c2)nn(-c2ccccc2)c1NC(=O)N[C@@H]1CN(CC2CC2)O[C@H]1c1ccc(F)c(F)c1 (racemic) [Compound I-201],< 100
8,Cc1c(-c2cnc3c(cnn3C)c2)nn(-c2ccccc2)c1NC(=O)N[C@@H]1CN(Cc2cnn(C)c2)O[C@H]1c1ccc(F)c(F)c1 (racemic) [Compound I-205],100 to 1000
9,CCN1C[C@@H](NC(=O)Nc2c(C)c(-c3cnc4c(cnn4C)c3)nn2-c2ccccc2)[C@H](c2ccc(F)c(F)c2)O1 (racemic) [Compound I-200],< 100
10,CNC(=O)c1cc(-c2nn(-c3ccc(F)c(F)c3)c(NC(=O)N[C@@H]3CN(CCOC)O[C@H]3c3ccc(F)c(F)c3)c2C)cnc1OC (racemic) [Compound I-181],< 100
11,COCCN1C[C@@H](NC(=O)Nc2c(C)c(-c3ccnc(C(=O)NO)c3)nn2-c2ccccc2)[C@H](c2ccnc(F)c2)O1 (racemic) [Compound I-230],< 100

# Same assay, conditions: Table 155, human TrkA inhibition; read-out: IC50
row,Compound,IC50 [nM]
1,COCCN1C[C@@H](NC(=O)Nc2c(C)c(OCC3CNCCO3)nn2-c2ccccc2)[C@H](c2ccnc(F)c2)O1 (stereo partly drawn) [Compound I-500],< 100
2,COCCN1C[C@@H](NC(=O)Nc2c(C)c(-c3cnc(N4CCNCC4)nc3)nn2-c2ccccc2)[C@H](c2ccnc(F)c2)O1 (racemic) [Compound I-414],< 100
3,COCCN1C[C@@H](NC(=O)Nc2c(C)c(-c3cnc(N4C[C@H]5CC[C@@H](C4)O5)nc3)nn2-c2ccccc2)[C@H](c2ccnc(F)c2)O1 (racemic) [Compound I-486],< 100
4,COCCN1C[C@@H](NC(=O)Nc2c(C)c(-c3cnc4c(c3)c(N3CCN(C)CC3)nn4C)nn2-c2ccccc2)[C@H](c2ccnc(F)c2)O1 (racemic) [Compound I-490],< 100
5,COCCN1C[C@@H](NC(=O)Nc2c(C)c(-c3ccc(N4C[C@H]5COC[C@@H](C4)N5C(=O)OC(C)(C)C)nc3)nn2-c2ccccc2)[C@H](c2ccnc(F)c2)O1 (racemic) [Compound I-393],< 100
6,COCCN1C[C@@H](NC(=O)Nc2c(C)c(-c3cnc4c(c3)ncn4C)nn2-c2ccccc2)[C@H](c2cc(F)nc(F)c2)O1 (racemic) [Compound I-320],< 100

# Same assay, conditions: Table 156, human TrkA inhibition; read-out: IC50
row,Compound,IC50 [nM]
1,CCN1C[C@@H](NC(=O)Nc2c(C)c(OCC3CN(C)CCO3)nn2-c2ccccc2)[C@H](c2ccc(F)c(F)c2)O1 (stereo partly drawn) [Compound I-548],< 100
2,COCCN1C[C@@H](NC(=O)Nc2c(C)c(-c3cnc(N4CC5CC(C4)O5)nc3)nn2-c2ccccc2)[C@H](c2cnc(F)c(F)c2)O1 [Compound I-514],< 100

# Same assay, conditions: Table 157, human TrkA inhibition; read-out: IC50
row,Compound,IC50 [nM]
1,COCCN1C[C@@H](NC(=O)Nc2c(C)c(-c3cnc(N4CC(N5CCOCC5)C4)nc3)nn2-c2ccccc2)[C@H](c2ccnc(F)c2)O1 (racemic) [Compound I-583],< 100
2,CCN1C[C@@H](NC(=O)Nc2c(C)c(OCCC3CCNC3)nn2-c2ccccc2)[C@H](c2ccc(F)c(F)c2)O1 (stereo partly drawn) [Compound I-599],< 100
3,COCCN1C[C@@H](NC(=O)Nc2c(C)c(CO)nn2-c2ccccc2)[C@H](c2ccc(F)c(F)c2)O1 [Compound I-619],< 100
4,COCCN1C[C@@H](NC(=O)Nc2c(C)c(-c3ccnc(CN(C)C)c3)nn2-c2ccccc2)[C@H](c2ccc(F)c(F)c2)O1 [Compound I-618],< 100
5,CCN1C[C@@H](NC(=O)Nc2c(C)c(OCCCC(=O)NCCN(C)C)nn2-c2ccccc2)[C@H](c2ccc(F)c(F)c2)O1 (racemic) [Compound I-667],< 100
6,COCCN1C[C@@H](NC(=O)Nc2c(C)c(-c3cnc4nc(C)oc4c3)nn2-c2ccccc2)[C@H](c2ccnc(F)c2)O1 (racemic) [Compound I-616],< 100
7,COCCN1C[C@@H](NC(=O)Nc2c(C)c(OCC(N)=O)nn2-c2ccccc2)[C@H](c2ccnc(F)c2)O1 (racemic) [Compound I-633],< 100
8,COCCN1C[C@@H](NC(=O)Nc2c(C)c(-c3cnc(N4CC[C@@H](N(C)C)C4)nc3)nn2-c2ccccc2)[C@H](c2ccnc(F)c2)O1 [Compound I-587],< 100
9,CNC(=O)c1cc(-c2nn(-c3ccccc3)c(NC(=O)N[C@@H]3CN(CCOC)O[C@H]3c3ccc(F)c(F)c3)c2C)ccn1 [Compound I-595],< 100
10,COc1ncc(-c2nn(-c3ccccc3)c(NC(=O)N[C@@H]3CN(CCC(F)(F)F)O[C@H]3c3ccc(F)c(F)c3)c2C)cn1 (racemic) [Compound I-621],> 1000

# Same assay, conditions: human TrkA 1 nmol/L, ATP 500 μmol/L, 120 min at 37° C.; read-out: IC50 values (TrkA phosphorylation inhibition)
row,Compound,IC50 [nM]
1,CNC(=O)c1ncc(-c2nn(-c3ccccc3)c(NC(=O)N[C@@H]3CN(CCOC)O[C@H]3c3cnc(F)c(F)c3)c2C)cc1F (racemic) [Compound I-313],3.6
2,COCCN1C[C@@H](NC(=O)Nc2c(C)c(-c3ccnc(C(=O)NOC)c3)nn2-c2ccccc2)[C@H](c2ccnc(F)c2)O1 (racemic) [Compound I-232],4.2
3,COCC[C@@H]1C[C@@H](NC(=O)Nc2c(C)c(-c3cnc(C)nc3)nn2-c2ccccc2)[C@H](c2ccnc(F)c2)O1 [Compound I-237],8.1
4,COCCN1C[C@@H](NC(=O)Nc2c(C)c(-c3cnc4c(c3)c(N=S(C)(C)=O)nn4C)nn2-c2ccccc2)[C@H](c2ccc(F)c(F)c2)O1 [Compound I-298],0.6
